Earlier results on two molecules are cited in US20230398128A1, “PREFERRED ORAL TESTOSTERONE UNDECANOATE THERAPY TO ACHIEVE TESTOSTERONE REPLACEMENT TREATMENT” (Marius Pharmaceuticals LLC, priority 2021, published 2023).

The conditions of this series: for increase in ambulatory SBP: previous testosterone studies.

The structures appear in SMILES notation.

As for `CCCCCCC(=O)O[C@H]1CC[C@H]2[C@@H]3CCC4=CC(=O)CC[C@]4(C)[C@H]3CC[C@]12C` [testosterone enanthate], the “increase in ambulatory SBP” value is reported as 3.7 mmHg.

As for `CCCCCCCCCCC(=O)O[C@H]1CC[C@H]2[C@@H]3CCC4=CC(=O)CC[C@]4(C)[C@H]3CC[C@]12C` [testosterone undecanoate (oral), testosterone undecanoate], the “increase in ambulatory SBP” value is reported as 4.9 mmHg. Moreover, the “increase in ambulatory systolic BP” value (previously reported study, subjects receiving antihypertensive medication) is listed as 5.5 mmHg.
